Data on 17 molecules can be found in patent US9718835B2 (China Medical University Hospital, priority 2013, dated 2017).

SMILES strings stand for the structures. Read-outs that look alike come from different tables or passages of the source.

Common to all, as to type: cell-based, human
One data set relates to A549 (Lung cancer). Briefly: cells.
The next data set deals with HCT 116 (Colon cancer). Briefly: cells.
Another data set relates to SKOV3 (Ovary cancer). Description: cells.
For data set [1], the system named is MDA-MB-468 (Breast cancer). Briefly: cells.
Another data set concerns A-549 (lung carcinoma). Description: Sulforhodamine B cytotoxicity assay, A-549. The following applies: Table 1; 72 h; average ± SD. The text has this: (§1) The human tumor cell lines used in this manuscript were A-549 (lung carcinoma), MDA-MB-231 (triple-negative breast cancer), DU-145 (hormone-insensitive prostate cancer), KB (originally isolated from epidermoid carcinoma of the nasopharynx), KBvin (vincristine-resistant KB subline), and HCT116 (colorectal adenocarcinoma). These cell lines were obtained from the Lineberger Comprehensive Cancer Center (UNC-CH) or from ATCC (Manassas, Va.), except KBvin, which was a generous gift of Professor Y.-C. Cheng (Yale University). All cell lines were maintained and assayed in RPMI-1640 medium containing 2 mM L-glutamine and 25 mM HEPES (HyClone), supplemented with 10% heat-inactivated fetal bovine serum (HyClone), 100 μg/mL streptomycin, 100 IU/mL penicillin, and 0.25 μg/mL amphotericin B (Cellgro) in a humidified atmosphere containing 5% CO2 in air. […] The 4-6×10^3 cells/well were cultured for 72 h with various concentrations of test compounds in 96-well plate at 37° C. […] Each assay was performed in triplicate with duplicated samples.
(In general: In SRB staining, fixed cells bind dye roughly in proportion to their protein.)

In data set [2] the test system is DU-145 (hormone-insensitive prostate cancer). Briefly: Sulforhodamine B cytotoxicity assay, DU-145. The following applies: Table 1; 72 h; average ± SD. How it is done:
(§2) The 12 novel 1-derivatives 9a-l were evaluated for in vitro antiproliferative activity against four human tumor cell lines, KB (nasopharyngeal), A-549 (lung), DU-145 (prostate), and KBvin (MDR KB subline), by using a sulforhodamine B colorimetric assay with triplicate experiments.^30 Compounds 1 and 3 were used as controls.
(§3) The human tumor cell lines used in this manuscript were A-549 (lung carcinoma), MDA-MB-231 (triple-negative breast cancer), DU-145 (hormone-insensitive prostate cancer), KB (originally isolated from epidermoid carcinoma of the nasopharynx), KBvin (vincristine-resistant KB subline), and HCT116 (colorectal adenocarcinoma). These cell lines were obtained from the Lineberger Comprehensive Cancer Center (UNC-CH) or from ATCC (Manassas, Va.), except KBvin, which was a generous gift of Professor Y.-C. Cheng (Yale University). All cell lines were maintained and assayed in RPMI-1640 medium containing 2 mM L-glutamine and 25 mM HEPES (HyClone), supplemented with 10% heat-inactivated fetal bovine serum (HyClone), 100 μg/mL streptomycin, 100 IU/mL penicillin, and 0.25 μg/mL amphotericin B (Cellgro) in a humidified atmosphere containing 5% CO2 in air. Compound stock solutions were prepared at 10 mM in DMSO and diluted with culture medium with the final DMSO concentration ≦0.01% (v/v), a concentration without effect on cell growth. The 4-6×10^3 cells/well were cultured for 72 h with various concentrations of test compounds in 96-well plate at 37° C. […] Each assay was performed in triplicate with duplicated samples.

For data set [3], the system named is KB (epidermoid carcinoma of the nasopharynx). Description: Sulforhodamine B cytotoxicity assay, KB. The note with it: Table 1; 72 h; average ± SD; read-out: IC50 KB. How it is done:
as §2, §3

Data set [4] deals with KBvin (vincristine-resistant KB subline). Briefly: Sulforhodamine B cytotoxicity assay, KBvin. The following applies: Table 1; 72 h; average ± SD; read-out: IC50 KBvin.
Source text: as §1

Where [5] appears, read: Homo sapiens, A549, Table 6, read-out: In vitro cytotoxicity A549 (Lung cancer).
The mark [6] stands for this setting: Homo sapiens, HCT-116, Table 6, read-out: In vitro cytotoxicity HCT 116 (Colon cancer).
Where [7] appears, read: Homo sapiens, SK-OV-3, Table 6, read-out: In vitro cytotoxicity SKOV3 (Ovary cancer).
[8] abbreviates: Homo sapiens, MDA-MB-468, Table 6, read-out: In vitro cytotoxicity MDA-MB-468 (Breast cancer).

In the case of `CC[C@@]1(OC(=O)CNC(Cc2ccc(OC)cc2)=NS(=O)(=O)c2ccc(C)cc2)C(=O)OCc2c1cc1n(c2=O)Cc2cc3c(CN4CCN(C)CC4)c(O)ccc3nc2-1` [#9], the IC50 is 13200 ± 1090 nM in the data set on A549 (Lung cancer) (setting [5]), 458 ± 46.3 nM in the data set on HCT 116 (Colon cancer) (setting [6]), 1700 ± 279 nM with SKOV3 (Ovary cancer) (setting [7]) and 871 ± 44.9 nM in data set [1] (setting [8]).

As for `CC[C@@]1(OC(=O)CNC(Cc2ccc(OC)cc2)=NS(=O)(=O)c2ccc(C)cc2)C(=O)OCc2c1cc1n(c2=O)C(C)c2cc3ccccc3nc2-1` (some centres unmarked) [#10], the IC50 is 2810 ± 416 nM in the data set with A549 (Lung cancer) (setting [5]), 2090 ± 96.1 nM with HCT 116 (Colon cancer) (setting [6]), 132 ± 24.2 nM in the data set on SKOV3 (Ovary cancer) (setting [7]) and 1650 ± 90.8 nM in data set [1] (setting [8]).

As to `CC[C@@]1(OC(=O)CNC(Cc2ccc(F)cc2)=NS(=O)(=O)c2ccc(C)cc2)C(=O)OCc2c1cc1n(c2=O)Cc2cc3ccccc3nc2-1` [#11], the IC50 in the data set with A549 (Lung cancer) (setting [5]) came out at 123 ± 9.1 nM; in the data set with HCT 116 (Colon cancer) (setting [6]), 71.9 ± 2.59 nM; in the data set on SKOV3 (Ovary cancer) (setting [7]), 31.1 ± 6.05 nM; in data set [1] (setting [8]) it was 49.7 ± 6.53 nM.

Take `CC[C@@]1(OC(=O)CNC(Cc2ccccc2)=NS(=O)(=O)c2ccc(C)cc2)C(=O)OCc2c1cc1n(c2=O)Cc2cc3ccccc3nc2-1` [Compound 9b]: the IC50 in the data set with A-549 (lung carcinoma) was 57 ± 3.9 nM; in data set [2] it was 130 ± 11 nM; in data set [3], 180 ± 0.8 nM; in data set [4], 100 ± 7.3 nM.

For the molecule `CC[C@@]1(OC(=O)C(C)NC(Cc2ccc(OC)cc2)=NS(=O)(=O)c2ccc(C)cc2)C(=O)OCc2c1cc1n(c2=O)Cc2cc3ccccc3nc2-1` (some centres unmarked) [Compound 9c], the IC50 was determined as 89 ± 8.3 nM with A-549 (lung carcinoma), 140 ± 5.9 nM in data set [2], 910 ± 60 nM in data set [3] and 87 ± 8.7 nM in data set [4].

On to `CC[C@@]1(OC(=O)C(C)NC(Cc2ccccc2)=NS(=O)(=O)c2ccc(C)cc2)C(=O)OCc2c1cc1n(c2=O)Cc2cc3ccccc3nc2-1` (some centres unmarked) [Compound 9d], for which the IC50 with A-549 (lung carcinoma) is 71 ± 6.9 nM; in data set [2] it was 150 ± 22 nM; in data set [3] it was 220 ± 17 nM; in data set [4], 96 ± 9.4 nM.

On to `CC[C@@]1(OC(=O)C(NC(Cc2ccc(OC)cc2)=NS(=O)(=O)c2ccc(C)cc2)C(C)C)C(=O)OCc2c1cc1n(c2=O)Cc2cc3ccccc3nc2-1` (some centres unmarked) [Compound 9e], for which the IC50 in the data set with A-549 (lung carcinoma) was found to be 1000 ± 110 nM; in data set [2] it was 1700 ± 140 nM; in data set [3], 11000 ± 480 nM; in data set [4], 1500 ± 110 nM.

Take `CC[C@@]1(OC(=O)C(NC(Cc2ccccc2)=NS(=O)(=O)c2ccc(C)cc2)C(C)C)C(=O)OCc2c1cc1n(c2=O)Cc2cc3ccccc3nc2-1` (some centres unmarked) [Compound 9f]: the IC50 stood at 1300 ± 120 nM in the data set on A-549 (lung carcinoma), 2000 ± 250 nM in data set [2], 11000 ± 280 nM in data set [3] and 2200 ± 56 nM in data set [4].

Consider `CC[C@@]1(OC(=O)C(CC(C)C)NC(Cc2ccc(OC)cc2)=NS(=O)(=O)c2ccc(C)cc2)C(=O)OCc2c1cc1n(c2=O)Cc2cc3ccccc3nc2-1` (some centres unmarked) [Compound 9g], for which the IC50 in the data set on A-549 (lung carcinoma) is 950 ± 18 nM; in data set [2] it was 1600 ± 96 nM; in data set [3] it was 2700 ± 8.3 nM; in data set [4], 1000 ± 130 nM.

For `CC[C@@]1(OC(=O)C(CC(C)C)NC(Cc2ccccc2)=NS(=O)(=O)c2ccc(C)cc2)C(=O)OCc2c1cc1n(c2=O)Cc2cc3ccccc3nc2-1` (some centres unmarked) [Compound 9h], the IC50 in the data set with A-549 (lung carcinoma) worked out at 890 ± 39 nM; in data set [2], 1100 ± 16 nM; in data set [3], 4400 ± 420 nM; in data set [4] it was 1800 ± 30 nM.

On to `CCC(C)C(NC(Cc1ccc(OC)cc1)=NS(=O)(=O)c1ccc(C)cc1)C(=O)O[C@]1(CC)C(=O)OCc2c1cc1n(c2=O)Cc2cc3ccccc3nc2-1` (some centres unmarked) [Compound 9i], for which the IC50 in the data set with A-549 (lung carcinoma) is 1200 ± 66 nM; in data set [2], 8300 ± 140 nM; in data set [3], 9600 ± 42 nM; in data set [4] it was 1700 ± 160 nM.

Consider `CCC(C)C(NC(Cc1ccccc1)=NS(=O)(=O)c1ccc(C)cc1)C(=O)O[C@]1(CC)C(=O)OCc2c1cc1n(c2=O)Cc2cc3ccccc3nc2-1` (some centres unmarked) [Compound 9j], for which the IC50 turned out to be 6500 ± 430 nM with A-549 (lung carcinoma), 11000 ± 750 nM in data set [2], 11000 ± 1000 nM in data set [3] and 8200 ± 610 nM in data set [4].

On to `CC[C@@]1(OC(=O)C(Cc2ccccc2)NC(Cc2ccc(OC)cc2)=NS(=O)(=O)c2ccc(C)cc2)C(=O)OCc2c1cc1n(c2=O)Cc2cc3ccccc3nc2-1` (some centres unmarked) [Compound 9k], for which the IC50 in the data set on A-549 (lung carcinoma) was 120 ± 10 nM; in data set [2], 220 ± 25 nM; in data set [3] it was 850 ± 24 nM; in data set [4], 120 ± 1.9 nM.

On to `CC[C@@]1(OC(=O)C(Cc2ccccc2)NC(CCO)=NS(=O)(=O)c2ccc(C)cc2)C(=O)OCc2c1cc1n(c2=O)Cc2cc3ccccc3nc2-1` (some centres unmarked) [Compound 9l], for which the IC50 with A-549 (lung carcinoma) was determined as 83 ± 10 nM; in data set [2] it was 200 ± 13 nM; in data set [3] it was 310 ± 21 nM; in data set [4] it was 140 ± 8.1 nM.

In the case of `CCc1c2c(nc3ccc(O)cc13)-c1cc3c(c(=O)n1C2)COC(=O)[C@@]3(CC)OC(=O)CNC(Cc1ccc(OC)cc1)=NS(=O)(=O)c1ccc(C)cc1` [Compound Wcpt-37], the IC50 with A549 (Lung cancer) (setting [5]) was 121 ± 15.8 nM; with HCT 116 (Colon cancer) (setting [6]), 55.8 ± 2.05 nM; in the data set with SKOV3 (Ovary cancer) (setting [7]) it was 11.6 ± 4.08 nM; in data set [1] (setting [8]), 7.54 ± 4.07 nM.

As for `CCc1c2c(nc3ccc(OC(=O)N4CCC(N5CCCCC5)CC4)cc13)-c1cc3c(c(=O)n1C2)COC(=O)[C@@]3(CC)OC(=O)CNC(Cc1ccc(OC)cc1)=NS(=O)(=O)c1ccc(C)cc1` [Compound Wcpt-39], the IC50 in the data set on A549 (Lung cancer) (Homo sapiens, A549, read-out: In vitro cytotoxicity A549 (Lung cancer)) is 30700 ± 2120 nM; in the data set on HCT 116 (Colon cancer) (Homo sapiens, HCT-116, read-out: In vitro cytotoxicity HCT 116 (Colon cancer)), 12500 ± 445 nM; in the data set on SKOV3 (Ovary cancer) (Homo sapiens, SK-OV-3, read-out: In vitro cytotoxicity SKOV3 (Ovary cancer)), 4380 ± 674 nM; in data set [1] (Homo sapiens, MDA-MB-468, read-out: In vitro cytotoxicity MDA-MB-468 (Breast cancer)), 6640 ± 497 nM.

Turning to `CCc1c2c(nc3ccccc13)-c1cc3c(c(=O)n1C2)COC(=O)[C@@]3(CC)OC(=O)CNC(Cc1ccc(OC)cc1)=NS(=O)(=O)c1ccc(C)cc1` [Wcpt-03], the IC50 in the data set with A549 (Lung cancer) (Table 6, read-out: In vitro cytotoxicity A549 (Lung cancer)) worked out at 48.3 ± 1.72 nM; with HCT 116 (Colon cancer) (Table 6, read-out: In vitro cytotoxicity HCT 116 (Colon cancer)), 208 ± 4.79 nM; in the data set with SKOV3 (Ovary cancer) (Table 6, read-out: In vitro cytotoxicity SKOV3 (Ovary cancer)) it was 8.08 ± 1.67 nM; in data set [1] (Table 6, read-out: In vitro cytotoxicity MDA-MB-468 (Breast cancer)), 17.7 ± 3.2 nM.
